pIC50, pKi: −log10 of the molar value.
What was measured:
Carbonic anhydrase 2 = Carbonic anhydrase 2 (Homo sapiens, UniProt P00918)
Description: Inhibition of human carbonic anhydrase 2 preincubated for 15 mins by stopped flow CO2 hydration assay

Carbonic anhydrase 9 = Carbonic anhydrase 9 (Homo sapiens, UniProt Q16790); test: Inhibition of human carbonic anhydrase 9 catalytic site preincubated for 15 mins by stopped flow CO2 hydration assay
Carbonic anhydrase 1 = Carbonic anhydrase 1 (Homo sapiens, UniProt P00915)
Description: Inhibition of human carbonic anhydrase 1 preincubated for 15 mins by stopped flow CO2 hydration assay

[1] = Toxicity in nude mouse xenografted with human HT-29 cells assessed as weight loss at 25 to 50 mg/kg, ip administered qd measured after 16 days; type: organism-based; conditions: in vivo, 384 h
[2] = Toxicity in nude mouse xenografted with human HT-29 cells assessed as clinical toxicity at 25 to 50 mg/kg, ip administered qd measured after 16 days; type: organism-based; conditions: in vivo, 384 h
HT-29 [3] = test: Antiproliferative activity against human HT-29 cells assessed as reduction in cell viability after 72 hrs by cell counter method; type: cell-based; conditions: HT-29, 72 h
Carbonic anhydrase 7 = Carbonic anhydrase 7 (Homo sapiens, UniProt P43166); test: Inhibition of human carbonic anhydrase 7 preincubated for 15 mins by stopped flow CO2 hydration assay
Chain of Carbonic anhydrase 7 (P43166 whole entry): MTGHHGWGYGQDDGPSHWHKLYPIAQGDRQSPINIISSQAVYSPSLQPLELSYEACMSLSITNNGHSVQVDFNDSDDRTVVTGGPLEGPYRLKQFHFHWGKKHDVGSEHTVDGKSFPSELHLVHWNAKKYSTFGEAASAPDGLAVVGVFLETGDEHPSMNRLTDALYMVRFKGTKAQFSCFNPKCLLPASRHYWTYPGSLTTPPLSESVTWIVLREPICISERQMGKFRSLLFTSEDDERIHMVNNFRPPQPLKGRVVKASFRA

HT-29 [4] = test: Synergistic cytotoxicity in human HT-29 cells assessed as dose reduction index ratio in presence of CoCl2-induced hypoxic conditions measured at 90 % cell growth inhibition after 72 hrs in presence of compound-5c by cell counter method; type: functional
HT-29 [5] = test: Synergistic cytotoxicity in human HT-29 cells assessed as dose reduction index ratio in presence of CoCl2-induced hypoxic conditions measured at 80 % cell growth inhibition after 72 hrs in presence of compound-5c by cell counter method; type: functional
HT-29 [6] = test: Synergistic cytotoxicity in human HT-29 cells assessed as dose reduction index ratio in presence of CoCl2-induced hypoxic conditions measured at 70 % cell growth inhibition after 72 hrs in presence of compound-5c by cell counter method; type: functional

Chain of Carbonic anhydrase 1 (P00915 whole entry): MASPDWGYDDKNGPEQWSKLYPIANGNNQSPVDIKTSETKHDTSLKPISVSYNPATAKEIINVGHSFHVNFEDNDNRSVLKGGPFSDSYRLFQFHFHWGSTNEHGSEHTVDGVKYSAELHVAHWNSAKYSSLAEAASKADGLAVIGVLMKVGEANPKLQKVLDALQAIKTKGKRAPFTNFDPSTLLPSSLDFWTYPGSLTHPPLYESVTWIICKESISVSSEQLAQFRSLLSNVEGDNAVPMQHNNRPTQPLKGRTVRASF

Row | Compound | pKi (Carbonic anhydrase 2) | pKi (Carbonic anhydrase 9) | pKi (Carbonic anhydrase 1) | other results
1 | O=C(Nc1cccc2c1C(=O)NS2(=O)=O)c1ccc(-c2ccccc2)cc1 | 6.04 | 5.93 | < 4.30 | 
2 | COc1ccc(C(=O)Nc2ccc3c(c2)C(=O)NS3(=O)=O)cc1 | 6.10 | 7.13 |  | 
3 | O=C(Nc1cccc2c1C(=O)NS2(=O)=O)c1ccccc1 | 6.74 | 6.65 | < 4.30 | 
4 | COc1ccc(C(=O)Nc2ccc3c(c2)S(=O)(=O)NC3=O)cc1 | 5.16 | 6.69 | < 4.30 | 
5 | O=C(Nc1ccc2c(c1)C(=O)NS2(=O)=O)c1cccc(Br)c1 | 5.41 | 7.50 |  | 
6 | O=C(Nc1ccc2c(c1)S(=O)(=O)NC2=O)c1ccc(F)cc1 | 6.04 | 6.27 | < 4.30 | 
7 | O=C(Nc1ccc2c(c1)C(=O)NS2(=O)=O)c1ccc(-c2ccccc2)cc1 | 7.08 | 6.64 | < 4.30 | 
8 | O=C(Nc1ccc2c(c1)S(=O)(=O)NC2=O)c1cccc(Cl)c1 | 5.22 | 6.63 | < 4.30 | 
9 | Cc1ccc(C(=O)Nc2ccc3c(c2)S(=O)(=O)NC3=O)cc1 | 6.39 | 6.27 | < 4.30 | 
10 | O=C(Nc1ccc2c(c1)C(=O)NS2(=O)=O)c1cccc(Cl)c1 | 6.23 | 7.17 |  | Activity [1]: Non-Toxic; Activity [2]: Non-Toxic; pIC50 (HT-29 [3]): < 4.00
11 | O=C(Nc1ccc2c(c1)C(=O)NS2(=O)=O)c1ccc(F)cc1 | 5.16 | 7.57 |  | 
12 | O=C(Nc1cccc2c1C(=O)NS2(=O)=O)c1cccc(Br)c1 | 6.23 | 7.51 |  | pKi (Carbonic anhydrase 7): < 4.30; pIC50 (HT-29 [3]): < 4.00
13 | O=C(Nc1ccc2c(c1)S(=O)(=O)NC2=O)c1ccccc1 | 5.14 | 6.66 | < 4.30 | 
14 | O=C(Nc1ccc2c(c1)S(=O)(=O)NC2=O)c1ccc(Cl)cc1 | 5.33 | 5.72 | < 4.30 | 
15 | O=C(Nc1ccc2c(c1)C(=O)NS2(=O)=O)c1ccc(Cl)cc1 | 5.64 | 7.06 | < 4.30 | 
16 | O=C(Nc1ccc2c(c1)S(=O)(=O)NC2=O)c1cccc(Br)c1 | 6.08 | 6.18 | < 4.30 | 
17 | CC(=O)Nc1ccc2c(c1)C(=O)NS2(=O)=O | 5.83 | 7.52 |  | pKi (Carbonic anhydrase 7): < 4.30; pIC50 (HT-29 [3]): < 4.00
18 | CCc1c2c(nc3ccc(O)cc13)-c1cc3c(c(=O)n1C2)COC(=O)[C@]3(O)CC [7-ETHYL-10-HYDROXYCAMPTOTHECIN] |  |  |  | Ratio (HT-29 [4]): 7.395; Ratio (HT-29 [5]): 2.039; Ratio (HT-29 [6]): 0.866
19 | O=c1[nH]cc(F)c(=O)[nH]1 [FLUOROURACIL] |  |  |  | Ratio (HT-29 [4]): 89.952; Ratio (HT-29 [5]): 15.884; Ratio (HT-29 [6]): 5.017

Reference: ChEMBL document CHEMBL4425112, “1,2-Benzisothiazole Derivatives Bearing 4-, 5-, or 6-Alkyl/arylcarboxamide Moieties Inhibit Carbonic Anhydrase Isoform IX (CAIX) and Cell Proliferation under Hypoxic Conditions” (J Med Chem, 2016)
